Tested on: human T lymphocyte strain Jurkat (ATCC TIB-152) adhesion to ICAM-1
Test: T-cell adhesion assay (Jurkat cells on ICAM-1 coated plates)
Type: cell-based
Conditions: Homo sapiens; BCECF-AM labelled Jurkat cells, ICAM-1 coated plate, fluorescence readout; read-out: EC50 of cell adhesion and inhibition
Method: Cell Adhesion Inhibition Experiments:
T-cell adhesion assay was performed using human T lymphocyte strain Jurkat (ATCC TIB-152): goat Anti-Human IgG (Fc specific) (Sigma 18885) was diluted to 10 μg/ml in PBS, incubated 100 μL per well/96 well plate at 4° C. for 12 hours. Liquid in the well plate was poured off, blocked with 200 μL of 1% BSA at 37° C. for 90 minutes, and washed three times with PBS. 50 μL of 1 μg/mL ICAM-1 (containing 0.1% BSA, 0.01% Tween 20) was added to each well and incubated at 37° C. for 3 hours. The plate was washed 3 times with assay buffer (20 mM HEPES pH 7.6, 140 mM NaCl, 1 mM MgCl2, 1 mM MnCl2, 0.2% glucose).
The Jurkat […] was centrifuged at 100-G, and cells were resuspended in an assay buffer (20 mM HEPES pH 7.6, 140 mM NaCl, 1 mM MgCl2, 1 mM MnCl2, 0.2% glucose) at 37° C.
2 μl of 1 mM of BCECF-AM per mL of the cell suspension was added. Incubated at 37° C. for 30 minutes, stirred up every 10 minutes during the incubation. After the incubation, the cells were washed with assay buffer at 37° C. The cells were suspended to a concentration of 6×10^6/mL.
The inhibitor was diluted to a final concentration of 2× in assay buffer, and 50 μL of the compound solution and […] of Jurkat cells were mixed at room temperature, and incubated at 37° C. for 30 minutes. 100 μL/well of cells and inhibitors were added to the plate and incubated for 1 hour at room temperature. The total fluorescence was measured by a fluorometer: ex: 485; em: 530; cutoff: 530 to measure the total fluorescence. The plate was washed once with the assay buffer and the fluorescence was measured with a fluorometer: ex: 485; em: 530; cutoff. The results are plotted as inhibition-concentration plots and EC50 is calculated using standard methods.

| SMILES | EC50 |
| --- | --- |
| COP(=O)(CCc1cc(Cl)c(C(=O)N[C@@H](Cc2cccc(S(C)(=O)=O)c2)C(=O)O)c(Cl)c1)c1cccc(O)c1 (some centres unmarked) [Example 8, (2s)-2-(2,6-dichloro-4-(2-(methoxy(3-hydroxyphenyl)phosphoryl)ethyl)benzylamido)-3-(3-(methylsulfonyl)phenyl)propionic Acid] | 6.2 nM |
| CS(=O)(=O)c1cccc(C[C@H](NC(=O)c2c(Cl)cc(/C=C/P(=O)(O)c3cccc(O)c3)cc2Cl)C(=O)O)c1 [Example 51, (2s)-2-(2,6-dichloro-4-(2-(hydroxy(m-hydroxyphenyl)phosphoryl)vinyl)benzamido)-3-(3-(methylsulfonyl)phenyl)propionic Acid] | 4.2 nM |
| CS(=O)(=O)c1cccc(C[C@H](NC(=O)c2c(Cl)cc(CCP(=O)(O)c3cccc(O)c3)cc2Cl)C(=O)O)c1 [Example 3, (2s)-2-(2,6-dichloro-4-(2-(hydroxy(m-hydroxyphenyl)phosphoryl)ethyl)benzamido)-3-(3-(methylsulfonyl)phenyl)propionic Acid] | 8.5 nM |
| CCOP(=O)(/C=C/c1cc(Cl)c(C(=O)N[C@@H](Cc2cccc(S(C)(=O)=O)c2)C(=O)O)c(Cl)c1)c1ccc(O)cc1 (some centres unmarked) [Example 54] | 9.6 nM |
| COP(=O)(C#Cc1cc(Cl)c(C(=O)N[C@@H](Cc2cccc(S(C)(=O)=O)c2)C(=O)O)c(Cl)c1)c1ccccc1 (some centres unmarked) [Example 5] | 22 nM |

Continued, values first:

| EC50 | SMILES |
| --- | --- |
| 9.4 nM | CS(=O)(=O)c1cccc(C[C@H](NC(=O)c2c(Cl)cc(C#CP(=O)(O)c3cccc(O)c3)cc2Cl)C(=O)O)c1 [Example 2] |
| 7.1 nM | C[P@@](=O)(CCc1cc(Cl)c(C(=O)N[C@@H](Cc2cccc(S(C)(=O)=O)c2)C(=O)O)c(Cl)c1)c1cccc(O)c1 [Example 31] |
| 6.8 nM | CP(=O)(C#Cc1cc(Cl)c(C(=O)N[C@@H](Cc2cccc(S(C)(=O)=O)c2)C(=O)O)c(Cl)c1)c1ccc(O)c(Cl)c1 (some centres unmarked) [Example 48] |
